Patent EP2563337B1, “CARRIER AND TARGETING SYSTEM COMPRISING A SIOSOMAL COMPOSITION FOR INTRACELLULAR DELIVERY AND TARGETING OF ACTIVE SUBSTANCE” (Salama, Zoser B., priority 2010, dated 2011)
Like-named read-outs stand apart in the source and are kept apart here.

How the values were obtained:
[1] = Encapsulation efficiency of doxorubicin hydrochloride in siosomes (absorbance at 480 nm after gel filtration); type: physicochemical
Method: A doxorubicin hydrochloride solution at 10 mg/ml was prepared using physiological saline. The predetermined amount of the doxorubicin hydrochloride solution was added to the sugar siosome dispersion using the cationic organosilicon compounds such as 1.2-(Dimethyldecylsilyl)ethyl-beta-D-glucosamin, 2.2-(Dimethyloctylsilylcholin)ethyl-beta-D-glucopyranosid and/or 1.2-(DiN,N,N,trimethylammoniadecylsilyl)ethyl-beta-D-glucopyranosid and the mixture was adjusted to pH 7.4, using 1 N NaOH or saturated sodium hydrogencarbonate and the mixture was stirred at 65°C for 30 minutes the thereby introduce the doxorubicin hydrochloride in the siosomes.
After doxorubicin hydrochloride introduction, the sample was cooled in an ice bath. Gel filtration was conducted using a column (Sepharose 4, fast flow, having a diameter of 2.8 cm and a length of 20 cm, fully substituted with 10% sucrose (pH 6.5)) to remove the doxorubicin hydrochloride that had not been introduced in the siosomes.
The amount of the sugar silanes in the siosomes, the amounts of the doxorubicin hydrochloride encapsulated in the siosomes and the siosomes themselves were measured by the same methods as in the above examples.
Concentration of the doxorubicin hydrochloride encapsulated in the siosomes was determined by measuring absorbance at 480 nm, using a spectrophotometer for the solution prepared by adding 2 ml of methanol to 40 µl of the doxorubicin siosomes. An alternative HPLC-based assay has also been used for the quantification of the doxorubicin in the formulations.
The above procedures described in example 16 were employed to prepare the carrier siosomes systems in this example. According to these methods of preparation, a dispersion of each of the following organo-silicon compounds were prepared, using doxorubicin hydrochloride solutions at […]. • Sil 8.1: Decyldimethylsilyl-α-D-galactopyranosid • Sil 9.1: Dodecyldimethylsilyl-α-D-glucopyranosid • SIL 15: 1-O-Dioctadecylsilyl-di(2,3,4,6-O-tetracetyl-β-D-galactopyranosid) • SIL 14: 1-o-Dioctadecylsilyl-di(2,3,4,6-O-tetracetyl-β-D-glucopyranosid)1-o- • SIL17: Didodecylsilyl-di(2,3,4,6-O-tetracetyl-β-D-glucopyranosid) • SIL18: Tridodecylsilyl-(2,3,4,6-O-tetracetyl-β-D-glucopyranosid) • Sil22.1 Di(octadecanoyloxy)dimethylsilan
The following parameters have been determined: 1 Physico chemical properties 2 Encapsulated efficiency of doxorubicin 3 Stability 4 Particle size distribution prior to lyophilisation and after dehydration using sterile water for injection 5 Release profile

[2] = Encapsulation efficiency of nucleic acid in cationic silane siosomes; type: physicochemical; conditions: Example 21 (i): nucleic acid-siosomes complex of the cationic silane
Excerpt: The cationic silanes-lipid mixture and/or the empty cationic siosomes (the same or different siosomes prepared from the same or different silanes) loaded with buffer and/or cations (2^+) such as Ca^2+, Zn^2+, Mg^2+ at selected pH-values, is hydrated in an appropriate medium containing the nucleic acid.
The mixture will be vortexed and/or sonicated for a period of time at suitable temperature.
Procedures for characterisation, particle stirring, stability, release, lyophilisation, sterilisation, rehydration, storage, and administration were employed according to this invention.

[3] = for Particle size range (nm): Example 16, Table 5: doxorubicin-sugar-siosomes of the cationic organosilicon compound; for Particle size range of the Doxorubicin-siosomes (nm): Example 18: doxorubicin-siosomes prepared from the single organosilicon compound; for Particle size of the siosomes (nm): Example 21 (i): nucleic acid-siosomes complex of the cationic silane
Method: The siosome size was measured using Zetasizer (Malvern Instruments).
The obtained test samples were analyzed using a Zetasizer from Malvern to measure the particle size of the Siosomes® and its concentration (via determination of the count rate which related to the sample quality and concentration).
The Zetasizer from Malvern performs particle size measurements using a process called Dynamic Light Scattering (DLS). Dynamic Light Scattering (also known as PCS - Photon Correlation Spectroscopy) measures Brownian motion and relates this to the size of the particles. It does this by illuminating the particles with a laser and analyzing the intensity fluctuations in the scattered light. If the particles or molecules are illuminated with a laser, the intensity of the scattered light fluctuates at a rate that is dependent upon the size of the particles as smaller particles are "kicked" further by the solvent molecules and move more rapidly.

[4] = Intracellular distribution of Cis-Oxoplatin within the rat liver, total platinum in liver homogenate and fractions; type: in vivo; conditions: for Average concentration of total platinum in the liver homogenate: 1.5 mg Cis-Oxoplatin encapsulated in Siosomes of the compound, intravenous, 3 hours after administration
Excerpt: • 1. The objective of the study to assess the intracellular distribution of Cis-Oxoplatin (as model drug molecule) in rat liver using Cis-Oxoplatin encapsulated in Siosomes®, using the following organosilicon compounds: • a. Sugar Organosilicon Compound: Didodecylsilyi-di(2,3,4,6-O-tetraacetyl-β-D-glucopyranosid (SIL 17) • b. Cationic Sugar Organosilicon Compound: 2.2-(Dimethyloctylsilylcholin)ethyl- β-D-glucopyranosid (SIL62) • c. Anionic Sugar Organosilicon Compound: 2-(Dimethyidecylsilyl)ethyl-β-D-glucopyranosidsulfate (SIL56) • d. Zwitterionic Sugar Organosilicon Compound: 2-(N,N,N, trimethylammonianonaylsilyl)ethyl- P-D-glucopyranosidsulfate (SIL66) • e. PEGylated Organosilicon Compound: 2-(Dimethyloctylsilylcholin)ethyl-β-D-PEG-acetylglucosaminether (SIL54) • 2. The different Siosomes® using each of the above mentioned organosilicon compounds have been prepared according to the procedures of this invention. The particle size range of the Siosomes® was 120-300 nm.
The Platinum-Siosomes®-Complex formulations were supplied in vials containing 10 mg each. Before administration, the contents of each vial was dissolved using 2 ml of sterile distilled water.
Each rat was administered with 1.5 mg investigative formulation, therefore each rat was administered 300 µl.
At the start of the study, all animals in all treatment groups received 1.5 mg of investigative drug. All drugs given via intravenous route were treated in an ultrasonic bath for five minutes at room temperature.
Tissue fractionation was performed by differential centrifugation yielding 5 fractions: • a. Mitochondrial fraction • b. Cytosol • c. Lysosomes • d. Microsomal fraction • e. Membrane fraction
Animals have been sacrificed 3 hours after the administration of the Siosomes® formulations. The livers have been removed from all animals. The liver homogenate has been prepared from the liver of each treatment group and used for the fractionation of the liver cells.
Each of the animals in the treatment control group for the determination of total platinum in the liver homogenate have been administered the Drug-Siosomes® formulations in the same way/procedures as the treatment groups.
Total platinum concentrations have been determined in each fraction for the treated and untreated animal groups. • Average animal weight = 211.64 ± 21.23 g • Average liver weight = 10.40 ± 1.27 g • Average concentration of total platinum in the liver homogenate of the treatment groups (control) • Group 1: Sugar Organosilicon Compound = 2.34 ± 0.82 µg/g • Group 2: Cationic Sugar Organosilicon Compound = 4.40 ± 1.30 µg/g • Group 3: Anionic Sugar Organosilicon Compound = 2.20 ± 0.90 µg/g • Group 4: Zwitterionic Sugar Organosilicon Compound = 3.10 ± 0.70 µg/g • Group 5: PEGylated Organosilicon Compound = 2.90 ± 1.20 µg/g

[5] = type: physicochemical; conditions: unloaded Siosomes
Method: The following are the general procedures according to this invention for the preparation of the Siosomes® using ethanol injection method: • An ethanol solution of the Sugar Silane was injected rapidly into an excess of de-ionized water through a syringe equipped with a fine needle. The force of injection is in many cases sufficient to achieve a good Siosomes® suspension. In some cases the Siosomes® suspension was sonicated during the injection and afterwards for additional 15-45 minutes. The ratio of injected ethanol to water is maintained in a way that the resulting suspension contains not more than 4-7.5% ethanol. The Siosomes® suspension was prepared with a Sugar Silane concentration of 0.5-2.5 mg/ml depending on the used Silane. With this concentration, the final Siosomes® suspension is ready for use for many applications and for the preparation of the lyophilised Siosomes® powder.
The unloaded Siosomes® prepared according to the procedures of this invention using ethanolic solution injection has been investigated for stability.
The following parameters have been considered: • The optimal particle size of the Siosomes® for the further application of the Siosomes® for the encapsulation of active, for screening and for the performance of in-vitro and in-vivo animal studies • The optimal manufacturing conditions to achieve the best particle size distribution for the required particle size (approximately 90 %) • The performance of the Stability testing for the unloaded Siosomes® using the particle size measurements and their distribution • The performance of the Stability testing of the prepared unloaded Siosomes® at 4°C, 25°C and 37°C and 42°C • Stability testing of the prepared encapsulated Siosomes® at: Acidic conditions, alkaline conditions, oxidative conditions and light
All measurements are performed with a Malvern Zetaziser. The Zetasizer was programmed to perform 3 x 15 measurements for each sample. For each temperature and reading point (for each temperature test series 12 sample measurements were performed) two samples has been tested.
The count rate is measured in Kcps (Kilo counts per second), and enables the samples quality and concentration to be checked.

[6] = Example 16, Table 5: doxorubicin hydrochloride in sugar siosomes of the cationic organosilicon compound
[7] = Example 18: doxorubicin-siosomes prepared from the single organosilicon compound

| Compound | Encapsulation efficiency (%) [1, 6] | Encapsulation efficiency (%) [1, 7] | Encapsulation efficiency (%) [2] | Particle size range (nm) [3] | Particle size range of the Doxorubicin-siosomes (nm) [3] | Particle size of the siosomes (nm) [3] | intracellular distribution of the encapsulated drug in all fractions ([4]; rat liver fractions (mitochondrial, cytosol, lysosomes, microsomal, membrane), intravenous application, compared with other Siosomes) | Average concentration of total platinum in the liver homogenate ([4]; rats) [µg/g] | concentration of total platinum in the liver homogenate compared with the other treatment groups ([4]; rats, i.v administration of Cis-Oxoplatin Siosomes, 3 hours) | stability of the aqueous solutions of the Siosomes suspensions ([5]; 4°C, 25°C, 37°C and 42°C) | count rate ([5]; 42°C) | count rate ([5]; over several days) | particle size diameter ([5]; 42°C) |
| --- | --- | --- | --- | --- | --- | --- | --- | --- | --- | --- | --- | --- | --- |
| Di-N,N,N, trimethylammoniadidodecylsilyl-di(2,3,4,6-O-tetraacetyl-beta-D-glucopyranosid) [SIL 64] | 70-85% | 70-75% | 65-75% | 120-200 nm | 140-220 nm | 120-220 nm |  |  |  |  |  |  |  |
| 2. 2-(Dimethyloctylsilylcholin) ethyl-beta-D-glucopyranosid [SIL 62] | 70-80% | 70-75% | 75-80% | 150-220 nm | 220-250 nm | 110-180 nm | significantly higher | 4.40 ± 1.30 | significantly higher |  |  |  |  |
| CCCCCCCCCCCC[Si](CCCCCCCCCCCC)(O[C@@H]1O[C@H](COC(C)=O)[C@@H](OC(C)=O)[C@H](OC(C)=O)[C@H]1OC(C)=O)O[C@@H]1O[C@H](COC(C)=O)[C@@H](OC(C)=O)[C@H](OC(C)=O)[C@H]1OC(C)=O [SIL 17, Didoceclylsilyl-di(2,3,4,6-O-tetraacetyl-β-D-glucopyranosid)] |  | 80-85% |  |  | 180-240 nm |  |  | 2.34 ± 0.82 |  | stable for several days | drops a little bit after several days but not drastically | stable |  |
| 2-(N,N,N,Dimethylammonia-methyl-decylsilyl)ethyl-beta-D-glucopyranosid [SIL 65] |  | 60-70% | 80-85% |  | 200-250 nm | 160-240 nm |  |  |  |  |  |  |  |
| 1. 2-(Dimethyldecylsilyl) ethyl-beta-D-glucosamin [SIL 61] | 75-82% | 80-85% | 80-85% | 120-240 nm | 200-220 nm | 80-120 nm |  |  |  |  |  |  |  |
| 1. 2-(Di-N,N,N, trimethylammoniadecylsilyl) ethyl-beta-D-glucopyranosid [SIL 63] |  | 65-70% | 70-80% |  | 120-200 nm | 150-250 nm |  |  |  |  |  |  |  |
| CCCCCCCCCC[Si](C)(C)CCO[C@@H]1O[C@H](CO)[C@@H](O)[C@H](O)[C@H]1O [SIL 2, 2-(Dimethyldecylsilyl)ethyl-β-D-glucopyranosid] |  |  |  |  |  |  |  |  |  |  |  |  | growing after 4 days |
